The source of these data is patent US12058996B2, “High subzero cryopreservation” (The General Hospital Corporation, priority 2017, dated 2024).

The structures appear in SMILES notation.

The test system of series [1] is Human Umbilical Vein Endothelial Cells (HUVEC). The series can be described thus: Endothelial cell attachment with CPAs without freezing (FIG. 9). Type of series: cell-based. The conditions noted are these: 100 mM 3-OMG, p=0.6995.
Experimental: Prior to coating with endothelial cells, microchannels were sonicated briefly (3 min in isopropanol; Branson 200, Branson Ultrasonics), and then rinsed with PBS. Channels were then coated with 1 mg/mL fibronectin (dissolved in sterile PBS, total of 10 μl) and incubated for 60 min at 37° C. After a priming step, HUVEC cells were trypsinized, counted, and re-suspended in EBM-2 complete media (˜10.0×10^6 cells per mL). Cells were subsequently introduced to the cell seeding port and incubated at 37° C. 5% CO2 for 30 min (FIG. 1A). Final constriction diameters of cellularized microchannels varied from ˜10 to 20 μm across the lengths of individual channels due to the presence of cellular nuclei along channel walls. […]
Cell attachment values were quantified by counting the total number of Hoechst positive cells (i.e. total number of cell nuclei) and dividing by the total number of channels (each device has maximum of 16 channels). Membrane integrity was quantified by counting the number of propidium iodide positive cells divided by the total number of Hoechst positive cells. Cell attachment and membrane integrity are expressed as box-and-whiskers plots showing median, interquartile range, maxima, and minima (n=4-8). […]
For series [2] the test system is unchanged. Description: Cryostage freeze-thaw of endothelial cell-coated microchannels (cell attachment, membrane integrity). Type of series: cell-based. Conditions: with Snomax. The procedure:
Prior to coating with endothelial cells, microchannels were sonicated briefly (3 min in isopropanol; Branson 200, Branson Ultrasonics), and then rinsed with PBS. Channels were then coated with 1 mg/mL fibronectin (dissolved in sterile PBS, total of 10 μl) and incubated for 60 min at 37° C. After a priming step, HUVEC cells were trypsinized, counted, and re-suspended in EBM-2 complete media (˜10.0×10^6 cells per mL). Cells were subsequently introduced to the cell seeding port and incubated at 37° C. 5% CO2 for 30 min (FIG. 1A). Final constriction diameters of cellularized microchannels varied from ˜10 to 20 μm across the lengths of individual channels due to the presence of cellular nuclei along channel walls. Coated microchannels were then fed under continuous gravity flow using a pipet tip containing media and inserted into the delivery port to generate flow in the reverse direction from loading (FIG. 1A). Pipet tips (200 μl) filled with media provided an initial hydrostatic head of 2.5 cm H2O. Cells incubated at 37° C. 5% CO2 up to 3 days with daily replacement of tips with filled media before proceeding to experimentation. […] Control, unfrozen microchannels were stained with Calcein green (1:1000), Hoescht (H3570; 1:1000 v:v), and propidium iodide (4 μg/mL) for 20 min and imaged, while microchannels imaged prior to experimentation/freezing were only stained with Calcein green (1:1000). These experimental microchannels were subsequently stained after experimentation/freezing with Hoescht (H3570; 1:1000 v:v), and propidium iodide (4 μg/mL).
Endothelial cell-coated microchannels were prepared, and placed on the silver block of a FDCS196 cryostage (Linkam Scientific Instruments Ltd, London, UK), the temperature of which was controlled by the TMS 94 temperature controller with the accuracy of ±0.1° C. Microchannels bonded to glass slides were cut into individual devices so they would fit on the silver block of the Linkam cryostage. A PixeLINK PL-A662 camera (PixeLINK, Ottawa, Canada) was used to visualize ice formation and propagation. In all cases, ice nucleation temperature was recorded and ice propagation throughout the device was confirmed by direct visual inspection (FIG. 7). Prior to freezing, endothelial cell-coated microchannels in the 3-O-methyl-D-glucopyranose (3-OMG) experimental group were incubated with EBM-2 complete media supplemented with either 50 or 100 mM 3-OMG at 37° C. to promote intracellular transport of the glucose analog. Supplementation of 3-OMG in the basal media and incubation at 37° is an effective method for intracellular delivery of 3-OMG. […] Snomax (Snomax International, Englewood, CO, USA) was used as the model ice nucleator in this study (1 mg/mL). Microchannels were perfused with PBS containing ice nucleators and/or cryoprotectant agents for 10 min prior to beginning the cooling profile. During the freezing experiment, the temperature was first cooled at 10° C./min to 4° C. After thermal stabilization, a cooling rate of 1° C./min was applied until reaching the holding temperature. […] For microchannels which contained Snomax, ice was observed <−6° C. in all cases, and channels were cooled to −6, −10, or −20° C. At the lowest holding temperature, microchannels were held for 3-5 min before a rapid rewarming at +30° C./min (FIG. 1C). After rewarming, microchannels were stained with Hoescht (nuclear) and propidium iodide (membrane integrity) dissolved in EBM-2 complete media for 20 min and imaged, in which the cell membrane integrity was used as a discriminator of live and dead cells.
Cell attachment values were quantified by counting the total number of Hoechst positive cells (i.e. total number of cell nuclei) and dividing by the total number of channels (each device has maximum of 16 channels). Membrane integrity was quantified by counting the number of propidium iodide positive cells divided by the total number of Hoechst positive cells. […]

Series [3] relates to livers (parenchyma and endothelial cells).
Text: In the experiments, endothelial damage occurred as a result of the loading process of high viscosity solutions. This liver was not frozen and was only subjected to the loading protocol with 10% glycerol as the main cryoprotectant.
A stepwise loading protocol was preformed to address this issue. The liver was sampled for histology and endothelial analysis immediately after CPA loading. Thus, all livers presented were not frozen/stored and had the independent damage of the loading protocol only. Furthermore, the loading protocol was redesigned with special consideration for the impact of dramatic changes in osmolality between distinct phases of CPA loading. Thus, a step-wise loading protocol was finalized.
The stepwise loading protocol was tested in the following way: (1) “Loading 1” refers to the 3-OMG loading phase which is essential for intracellular delivery of this CPA. 3-OMG is loaded using the subnormothermic cocktail containing a William's E media base supplemented with heparin, hydrocortisone, insulin, etc.
First, livers were continuously perfused with either 50 or 100 mM 3-OMG at subnormothermic temperatures for 60 minutes (“Loading 1”) and were immediately sampled for histology.
After the experiment was stopped, livers were sampled for histology.
Series [4] in a line: pH change of storage solution on freezing (phenol red). Type of series: physicochemical. The conditions noted are these: phenol red in storage solution. The text has this:
The pH can change dramatically as a function of freezing and holding temperature. Depending on the components of the storage solution, the biologic sample can be exposed to an acidic or a basic environment. These changes can be determined by adding phenol red to the storage solution. […] This pH change is relevant and can affect the preservation media. To counter these fluctuations in pH, the goal is to introduce “counter ions” which can balance the pH change.

With `CO[C@H]1[C@H](O)[C@@H](CO)OC(O)[C@@H]1O` (stereo partly drawn) [3-OMG, 3-O-methyl-D-glucopyranose], the “cell attachment versus unfrozen controls without CPAs” value in series [1] is on record as “no statistical significant difference”. Moreover, the cell attachment in series [2] (50 mM 3-OMG, Thold −6° C.) turned out to be 33.2±9.1 cells/lane; in series [2] (50 mM 3-OMG, Thold −10° C.) it was 15.1±8.2 cells/lane; in series [2] (100 mM 3-OMG, Thold −6° C.), 31.4±6.6 cells/lane; in series [2] (100 mM 3-OMG, Thold −10° C.) it was 33.6±8.8 cells/lane. For the same compound, the “percent PI positive cells (membrane integrity)” value in series [2] (50 mM 3-OMG, Thold −6° C.) worked out at 7.4±3.7%; in series [2] (50 mM 3-OMG, Thold −10° C.), 38.1±7.5%; in series [2] (100 mM 3-OMG, Thold −6° C.), 7.3±2.8%; in series [2] (100 mM 3-OMG, Thold −10° C.), 20.5±12.4%.

Turning to `OCC(O)CO` [glycerol], the “cell death after loading that was not stepwise (FIG. 15A)” value in series [3] is “majority of cell death evident in endothelial cells”.

For `O=C([O-])O.[Na+]` [sodium bicarbonate], in series [4], the “pH change of solution as the result of freezing” value is listed as “became basic”.
